Earlier results on 1 molecule are cited in patent EP3811932A1, “DOSAGE FORM OF APALUTAMIDE” (Zentiva K.S., priority 2019, dated 2021).

For this data set the following is noted: over a wide range of pH values.

In the case of `CNC(=O)c1ccc(N2C(=S)N(c3cnc(C#N)c(C(F)(F)F)c3)C(=O)C23CCC3)cc1F` [Apalutamide, 4-[7-[6-cyano-5-(trifluoromethyl)pyridin-3-yl]-8-oxo-6-thioxo-5,7-diazaspiro[3.4]octan-5-yl]-2-fluoro-N-methylbenzamide], the “solubility in aqueous media” value is reported as “practically insoluble”.
